Experimental data: PMC9942140 (Journal of medicinal chemistry, 2022)

Target: T1, hepatocyte nuclear factor 4α (HNF4α) (Homo sapiens, UniProt P41235)
T1 sequence (P41235 147-377): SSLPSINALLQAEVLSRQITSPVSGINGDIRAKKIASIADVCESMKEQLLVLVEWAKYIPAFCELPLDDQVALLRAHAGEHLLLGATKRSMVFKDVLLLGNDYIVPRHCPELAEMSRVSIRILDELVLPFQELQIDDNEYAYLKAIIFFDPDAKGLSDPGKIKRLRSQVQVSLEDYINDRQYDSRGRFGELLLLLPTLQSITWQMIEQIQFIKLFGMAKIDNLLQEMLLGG
Experiment: intrinsic tyrosine/tryptophan fluorescence quenching titration of purified LBD
Type: binding

With `COc1cc(C)c(C(C)C)cc1S(=O)(=O)N(CC(O)Cn1nnnc1-c1ccccn1)c1ccccc1C` (racemic) [compound 33, N-(2-Hydroxy-3-(5-(pyridin-2-yl)-1H-tetrazol-1-yl)propyl)-5-isopropyl-2-methoxy-4-methyl-N-(o-tolyl)benzenesulfonamide] the Kd was 312 nM.
